In patent US10071974B2, “Morpholine and 1,4-oxazepane amides as somatostatin receptor subtype 4 (SSTR4) agonists” (Boehringer Ingelheim International GmbH, priority 2014, dated 2018):

Legend:
human SSTR5 = human SSTR5 (Homo sapiens (Human), UniProt P35346); assay: Radioligand binding assay, CHO cell membranes expressing recombinant human SSTR5
Excerpt: (§1) Radioligand Binding Assays
(§2) Method description for binding assays with human Somatostatin receptors by use of CHO cell membranes expressing recombinant human SSTR1 or human SSTR2 or human SSTR3 or human SSTR4 or human SSTR5
(§3) Receptor binding assays refer to a technique in which labeled receptor ligands are used to detect binding to a receptor. In competition experiments test compounds, which are not labeled, compete with the binding side of a labeled ligand. The displacement of the labeled ligand by the test compound leads to a decreased signal.
(§4) For the binding experiments 200 μL of membrane homogenate from one of the following protein amounts is used: hSSTR1 (40 μg/well); hSSTR2 (25 μg/well); hSSTR3 (1.5 μg/well); hSSTR4 (0.5 μg/well); hSSTR5 (25 μg/well). The homogenate is incubated with 0.05 nM of radioligand ([3-125I-Tyr]-Somatostatin-(1-14)) in addition to increasing concentrations of a test compound or vehicle (100% binding) in a total volume of 250 μL using a Hepes buffer (10 mM, EDTA 1 mM, MgCl2 5 mM, pH7.6, BSA 0.5%, Bacitracin 0.003%, DMSO 1%) for 180 min at room temperature. The incubation is terminated by filtration with ice cold NaCl 0.9% through polyethyleneimine treated (0.3%) GF/B glass fiber filters using a cell harvester. The protein-bound radioactivity is measured in a suitable reader. The non-specific binding is defined as radioactivity bound in the presence of 1 μM Somatostatin-14 during the incubation period.
(§5) The analysis of the concentration-binding curves is performed by computer-assisted nonlinear least square curve fitting method using the model of one receptor binding site.
(§6) Selectivity data was obtained with the aid of the above described radioligand binding assays.

[1] = target: human Somatostatin 4 Receptor (SSTR4) (Homo sapiens (Human), UniProt P31391); assay: cAMP assay with human somatostatin 4 receptor (hSSTR4 expressing H4 cells); type: cell-based; settings: read-out: SSTR4 agonism EC50
Chain of human Somatostatin 4 Receptor (SSTR4) (P31391 whole entry): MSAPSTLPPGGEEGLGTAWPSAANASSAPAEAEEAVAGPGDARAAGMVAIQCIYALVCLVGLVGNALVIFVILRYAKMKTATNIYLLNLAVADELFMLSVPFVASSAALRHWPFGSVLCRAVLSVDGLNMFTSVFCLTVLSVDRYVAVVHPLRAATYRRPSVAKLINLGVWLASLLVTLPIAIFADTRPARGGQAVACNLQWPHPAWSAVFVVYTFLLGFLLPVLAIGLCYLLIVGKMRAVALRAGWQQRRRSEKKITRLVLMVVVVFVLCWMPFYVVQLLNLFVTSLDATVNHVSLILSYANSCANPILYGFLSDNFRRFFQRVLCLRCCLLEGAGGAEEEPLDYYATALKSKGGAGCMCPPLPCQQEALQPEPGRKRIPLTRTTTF

human SSTR3 = human SSTR3 (Homo sapiens (Human), UniProt P32745); assay: Radioligand binding assay, CHO cell membranes expressing recombinant human SSTR3
Chain of human SSTR3 (P32745 whole entry): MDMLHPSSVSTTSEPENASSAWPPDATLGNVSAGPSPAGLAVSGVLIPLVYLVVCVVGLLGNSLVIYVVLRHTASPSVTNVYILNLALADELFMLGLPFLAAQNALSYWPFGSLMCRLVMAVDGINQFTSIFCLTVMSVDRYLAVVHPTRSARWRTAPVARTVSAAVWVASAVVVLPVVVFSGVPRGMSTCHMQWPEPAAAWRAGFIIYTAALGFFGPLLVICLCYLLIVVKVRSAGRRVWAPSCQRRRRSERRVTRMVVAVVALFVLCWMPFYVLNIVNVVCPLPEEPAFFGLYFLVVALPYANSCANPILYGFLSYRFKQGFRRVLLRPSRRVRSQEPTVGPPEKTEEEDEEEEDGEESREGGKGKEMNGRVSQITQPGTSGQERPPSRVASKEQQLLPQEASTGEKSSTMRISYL
Excerpt: as §1, §2, §3, §4, §5, §6

human SSTR2 = human SSTR2 (Homo sapiens (Human), UniProt P30874); assay: Radioligand binding assay, CHO cell membranes expressing recombinant human SSTR2
Chain of human SSTR2 (P30874 whole entry): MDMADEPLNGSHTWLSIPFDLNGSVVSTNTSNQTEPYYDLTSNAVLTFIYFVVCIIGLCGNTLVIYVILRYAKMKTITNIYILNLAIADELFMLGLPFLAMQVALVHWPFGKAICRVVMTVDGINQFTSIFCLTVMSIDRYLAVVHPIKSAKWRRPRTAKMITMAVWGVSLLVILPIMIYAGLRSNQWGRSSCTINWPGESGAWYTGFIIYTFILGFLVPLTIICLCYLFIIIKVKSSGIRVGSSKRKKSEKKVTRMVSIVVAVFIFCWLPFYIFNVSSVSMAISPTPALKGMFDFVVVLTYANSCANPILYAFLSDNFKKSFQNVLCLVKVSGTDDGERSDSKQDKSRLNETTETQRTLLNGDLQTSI
Excerpt: as §1, §2, §3, §4, §5, §6

human SSTR4 = human SSTR4 (Homo sapiens (Human), UniProt P31391); assay: Radioligand binding assay, CHO cell membranes expressing recombinant human SSTR4
Chain of human SSTR4 (P31391 whole entry): as the sequence (P31391 whole entry) above
Excerpt: as §1, §2, §3, §4, §5, §6

in vitro = settings: human, microsomes, pH 7.6
human SSTR1 = human SSTR1 (Homo sapiens (Human), UniProt P30872); assay: Radioligand binding assay, CHO cell membranes expressing recombinant human SSTR1
Chain of human SSTR1 (P30872 whole entry): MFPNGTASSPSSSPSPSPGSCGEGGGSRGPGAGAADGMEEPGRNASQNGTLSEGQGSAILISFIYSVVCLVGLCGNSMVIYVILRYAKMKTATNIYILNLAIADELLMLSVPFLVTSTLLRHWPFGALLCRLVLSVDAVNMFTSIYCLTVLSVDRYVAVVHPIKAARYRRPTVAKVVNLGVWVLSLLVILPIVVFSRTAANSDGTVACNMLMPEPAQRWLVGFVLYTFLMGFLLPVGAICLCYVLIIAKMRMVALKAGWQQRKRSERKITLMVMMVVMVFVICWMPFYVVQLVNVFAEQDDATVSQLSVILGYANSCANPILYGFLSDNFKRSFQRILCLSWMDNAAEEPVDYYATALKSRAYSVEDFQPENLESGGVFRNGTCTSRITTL
Excerpt: as §1, §2, §3, §4, §5, §6

Chain of human SSTR5 (P35346 whole entry): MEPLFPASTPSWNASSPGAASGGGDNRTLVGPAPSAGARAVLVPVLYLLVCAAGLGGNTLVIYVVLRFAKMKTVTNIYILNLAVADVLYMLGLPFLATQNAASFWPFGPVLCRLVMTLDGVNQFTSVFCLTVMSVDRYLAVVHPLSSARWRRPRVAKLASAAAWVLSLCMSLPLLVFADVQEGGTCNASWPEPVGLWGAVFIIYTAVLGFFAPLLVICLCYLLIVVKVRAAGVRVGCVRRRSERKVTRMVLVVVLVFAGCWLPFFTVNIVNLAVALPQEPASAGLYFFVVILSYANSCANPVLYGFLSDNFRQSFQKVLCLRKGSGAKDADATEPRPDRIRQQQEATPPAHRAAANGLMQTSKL

| SMILES | EC50 [1] | half-life at 1 μM (in vitro) | other results |
| --- | --- | --- | --- |
| Cn1nc(C(C)(C)NC(=O)C2CNCCOC2)c2ccccc21 (single isomer, unassigned) [Example 21] | 3.2 nM | > 2.17 h | Ki (human SSTR5): 9750 nM; Ki (human SSTR3): 8620 nM; Ki (human SSTR2): 9600 nM; Ki (human SSTR4): 89.2 nM; Ki (human SSTR1): 9450 nM |
| Cn1nc(C(C)(C)NC(=O)C2CNCCOC2)c2cccc(Cl)c21 (single isomer, unassigned) [Example 82] | 3 nM | > 2.17 h | – |
| Cc1cc2ccccc2c(C(C)(C)NC(=O)C2CNCCOC2)n1 (single isomer, unassigned) [Example 46] | 3.4 nM | > 2.17 h | – |
| Cc1nnc(C(C)(C)NC(=O)C2CNCCOC2)c2ccccc12 (racemic) [Example 37] | 11.7 nM | > 2.17 h | – |
| Cc1cc2ccccc2c(C(C)(C)NC(=O)[C@@H]2CNCCO2)n1 [Example 43] | – | 1.83 h | – |
| Cn1nc(C(C)(C)NC(=O)C2CCNCCO2)c2ccccc21 (racemic) [Example 26] | 61.3 nM | > 2.17 h | – |
| Cc1ncc(C(C)(C)NC(=O)C2CNCCOC2)c2ccccc12 (single isomer, unassigned) [Example 41] | 0.7 nM | > 2.17 h | – |
| Cc1cc2ccccc2c(C(C)(C)NC(=O)C2CNCCCO2)n1 (single isomer, unassigned) [Example 48] | 18.9 nM | > 2.17 h | – |
| Cc1cc2ccccc2c(C(C)(C)NC(=O)C2CNCCOC2)n1 (racemic) [Example 44] | 7 nM | > 2.17 h | – |
| Cn1nc(C(C)(C)NC(=O)C2CNCCCO2)c2ccccc21 (racemic) [Example 23] | 36.5 nM | > 2.17 h | – |
| Cc1cccc2c(C(C)(C)NC(=O)C3CNCCOC3)cnn12 (single isomer, unassigned) [Example 34] | 5.7 nM | > 2.17 h | – |
| Cc1cccc2c(C(C)(C)NC(=O)[C@@H]3CNCCO3)n[nH]c12 [Example 57] | 2.4 nM | > 2.17 h | – |
| Cc1cccc2c(C(C)(C)NC(=O)C3CNCCOC3)noc12 (single isomer, unassigned) [Example 55] | 2.9 nM | > 2.17 h | – |
| Cn1nc(C(C)(C)NC(=O)C2CNCCCO2)c2ccccc21 (single isomer, unassigned) [Example 24] | 36.2 nM | > 2.17 h | Ki (human SSTR5): 9750 nM; Ki (human SSTR3): 8620 nM; Ki (human SSTR2): 9600 nM; Ki (human SSTR4): 523 nM; Ki (human SSTR1): 9450 nM |
| Cc1cccc2c(C(C)(C)NC(=O)C3CNCCOC3)n[nH]c12 (single isomer, unassigned) [Example 60] | 1.3 nM | > 2.17 h | – |
| Cc1ncc(C(C)(C)NC(=O)[C@@H]2CNCCO2)c2ccccc12 [Example 38] | 1.3 nM | > 2.17 h | – |
| Cc1cccc2c(C(C)(C)NC(=O)C3CNCCOC3)nn(C)c12 (single isomer, unassigned) [Example 85] | 2 nM | > 2.17 h | – |
| CC(C)(NC(=O)C1CNCCOC1)c1n[nH]c2c(F)cccc12 (single isomer, unassigned) [Example 89] | 3.1 nM | > 2.17 h | – |

| SMILES | EC50 [1] | half-life at 1 μM (in vitro) | other results |
| --- | --- | --- | --- |
| Cn1nc(C(C)(C)NC(=O)C2CNCCOC2)c2ccccc21 (racemic) [Example 20] | 3.9 nM | > 2.17 h | – |
| Cn1nc(C(C)(C)NC(=O)C2CNCCOC2)c2cccc(F)c21 (single isomer, unassigned) [Example 77] | 5.1 nM | > 2.17 h | – |
| Cn1nc(C(C)(C)NC(=O)[C@@H]2CNCCO2)c2ccc(F)cc21 [Example 30] | 13.1 nM | > 2.17 h | – |
| Cn1nc(C(C)(C)NC(=O)[C@@H]2CNCCO2)c2ccccc21 [Example 19] | 13.3 nM | > 2.17 h | Ki (human SSTR5): 9860 nM; Ki (human SSTR3): 8710 nM; Ki (human SSTR2): 9630 nM; Ki (human SSTR4): 194 nM; Ki (human SSTR1): 9010 nM |
| Cn1nc(C(C)(C)NC(=O)C2CNCCOC2)c2cccc(Cl)c21 (single isomer, unassigned) [Example 81] | 152 nM | – | – |
| CC(C)(NC(=O)C1CCNCCO1)c1noc2c(F)cccc12 (single isomer, unassigned) [Example 69] | 434 nM | – | – |
| CC(C)(NC(=O)C1CCNCCO1)c1noc2c(F)cccc12 (single isomer, unassigned) [Example 70] | 544 nM | – | – |
| Cc1cccc2c(C(C)(C)NC(=O)C3CNCCOC3)cnn12 (single isomer, unassigned) [Example 35] | 2860 nM | – | – |
| Cc1cc2ccccc2c(C(C)(C)NC(=O)C2CCNCCO2)n1 (racemic) [Example 50] | 105 nM | – | – |
| Cn1nc(C(C)(C)NC(=O)C2CNCCOC2)c2cccc(F)c21 (single isomer, unassigned) [Example 78] | 430 nM | – | – |
| CC(C)(NC(=O)C1CNCCOC1)c1n[nH]c2c(Cl)cccc12 (single isomer, unassigned) [Example 93] | 1.4 nM | > 2.17 h | – |
| CC(C)(COc1nccc2ccccc12)NC(=O)C1CNCCOC1 (racemic) [Example 16] | 393 nM | – | – |
| Cn1nc(C(C)(C)NC(=O)C2CCNCCO2)c2ccccc21 (single isomer, unassigned) [Example 28] | 48.4 nM | – | – |
| CC(C)(COc1cnccc1C(F)(F)F)NC(=O)C1CNCCOC1 (stereo not shown) [Example 4] | 272 nM | – | – |
| Cn1nc(C(C)(C)NC(=O)C2CCNCCO2)c2ccccc21 (single isomer, unassigned) [Example 27] | 55.8 nM | > 2.17 h | – |
| C[C@H](NC(=O)[C@@H]1CNCCO1)c1cccc2ccccc12 [Example 10] | 51.2 nM | – | – |
| Cc1cccc2c(C(C)(C)NC(=O)C3CNCCOC3)n[nH]c12 (single isomer, unassigned) [Example 59] | 1070 nM | – | – |
| CC(C)(NC(=O)[C@@H]1CNCCO1)c1n[nH]c2c(Cl)cccc12 [Example 91] | 3.4 nM | > 2.17 h | – |

Further lines, with some results ahead:

| EC50 [1] | half-life at 1 μM (in vitro) | SMILES | other results |
| --- | --- | --- | --- |
| 2.6 nM | > 2.17 h | Cc1cccn2c(C(C)(C)NC(=O)C3CNCCOC3)ncc12 (single isomer, unassigned) [Example 117] | – |
| 3.7 nM | > 2.17 h | Cc1cccn2c(C(C)(C)NC(=O)C3CNCCOC3)ccc12 (single isomer, unassigned) [Example 136] | – |
| 13 nM | > 2.17 h | CC(C)(NC(=O)[C@@H]1CNCCO1)c1ncc2c(Cl)cccn12 [Example 96] | – |
| 5 nM | > 2.17 h | Cc1cccn2c(C(C)(C)NC(=O)C3CNCCOC3)nc(C)c12 (racemic) [Example 128] | – |
| 3.7 nM | 1.4 h | Cc1cccn2c(C(C)(C)NC(=O)[C@@H]3CNCCO3)ccc12 [Example 109] | – |
| 9.3 nM | > 2.17 h | Cc1cccn2c(C(C)(C)NC(=O)C3CNCCOC3)ncc12 (racemic) [Example 116] | – |
| 40.8 nM | – | Cc1cccn2c(C3(NC(=O)[C@@H]4CNCCO4)CC3)ncc12 [Example 97] | – |
| 185 nM | – | Cc1cccn2c(C(C)(C)NC(=O)C3CNCCCO3)nc(C)c12 (racemic) [Example 147] | – |
| 294 nM | – | Cc1cccn2c(C3(NC(=O)[C@@H]4CNCCO4)CCOC3)ncc12 (single isomer, unassigned) [Example 115] | – |
| 4.5 nM | > 2.17 h | Cc1cccn2c(C(C)(C)NC(=O)[C@@H]3CNCCO3)ncc12 [Example 95] | Ki (human SSTR5): 9770 nM; Ki (human SSTR3): 8690 nM; Ki (human SSTR2): 9630 nM; Ki (human SSTR4): 218 nM; Ki (human SSTR1): 9480 nM |
| 380 nM | – | Cc1cccn2c(C(C)(CC(C)C)NC(=O)[C@@H]3CNCCO3)ncc12 (single isomer, unassigned) [Example 113] | – |
| 5.9 nM | > 2.17 h | CC(C)(NC(=O)C1CNCCOC1)c1ncc2c(Cl)cccn12 (single isomer, unassigned) [Example 120] | – |
| 1000 nM | – | Cc1cccn2c(C(C)(C)NC(=O)C3CNCCCO3)nc(C)c12 (single isomer, unassigned) [Example 149] | – |
| 29.1 nM | > 2.17 h | Cc1cccn2c(C(C)(C)NC(=O)C3CNCCCO3)ncc12 (single isomer, unassigned) [Example 145] | – |
| 90.2 nM | – | Cc1cccn2c(C(C)(C)NC(=O)C3CCNCCO3)ncc12 (racemic) [Example 141] | – |
| 86.8 nM | – | Cc1cccn2c(C(C)(C)NC(=O)C3CNCCOC3)ncc12 (single isomer, unassigned) [Example 118] | – |
| 19 nM | – | Cc1cccn2c(C3(NC(=O)C4CNCCOC4)CCC3)ncc12 (single isomer, unassigned) [Example 131] | – |
